The text below walks through data of US9458507B1, “Antipsychotic treatment based on SNP genotype” (Vanda Pharmaceuticals, Inc., priority 2007, dated 2016).

The target in one assay is 5-HT, receptor (Homo sapiens, UniProt P34969). The note with it: cited from earlier work.
Assay [1] has as its system patients with diagnoses of schizophrenia. Description: randomized, double-blind, placebo- and ziprasidone-controlled, 28-day study of iloperidone with whole genome association study; change in PANSS-T by SNP genotype. The class given is in vivo, human. The note with it: for mean of change in PANSS-T: iloperidone group, MMRM analysis; for Odds Ratio of Improvement ≧ 20% in PANSS-T: iloperidone-treated patients, LOCF data. As to the method: The clinical trial evaluated the efficacy of iloperidone in treating patients with diagnosed schizophrenia.
Patients 18 to 65 years of age with diagnoses of schizophrenia according to the Diagnostic and Statistical Manual of Mental Disorders, 4th Edition were eligible to participate in a randomized, double-blind, placebo- and ziprasidone-controlled, 28-day study of the efficacy and safety of iloperidone. Patients were randomly assigned to iloperidone 12 mg twice a day, ziprasidone 80 mg twice a day (active control), or placebo. The primary efficacy variable was change from baseline to the last scheduled observation in Positive and Negative Syndrome Scale total score (PANSS-T) using the data from the short-term, double-blind phase. A secondary objective was to identify genetic markers predictive of response to iloperidone.
Blood samples were collected, and DNA was extracted from 432 of 457 patients who consented to the optional WGAS, including 218 patients administered iloperidone and 102 administered placebo.
To independently discover and confirm biomarkers of iloperidone efficacy, patients administered iloperidone were randomly separated and genotyped for the WGAS into two groups (Group 1 (discovery phase) and Group 2 (confirmatory phase)) of equal size. PROC SURVEYSELECT (SAS Institute, Cary, N.C.) was used to stratify the groups to have approximately equal numbers of patients of each race and each sex.
In Group 1, each SNP was tested for potential association between genotype and change in PANSS-T for patients in the low 30% and the high 30% extremes of the distribution of Day 28 last-observation-carried-forward (LOCF) data. Analysis was performed using a truncated nonparametric measure analysis of variance (ANOVA), based on the Kruskal-Wallis test, with genotypes as the grouping variables. Based on a significant omnibus test and ad hoc contrasts, the results that produced the most parsimonious genetic model (e.g., homozygous for one allele vs. all other genotypes (e.g., AA vs. AB and BB), heterozygous vs. homozygous genotypes (AB vs. AA and BB)) dictated the genetic model that was tested in the confirmatory phase. For ease of global description, given that each SNP might have a different parsimonious model, the genotypes of all SNPs associated with positive iloperidone response were referred to as genotype class C1, and the remaining genotypes for that SNP were referred to as genotype class C2. If no parsimonious genetic model was obtained for a SNP, it was not tested further. Only the subset of 100 SNPs with the lowest P values for the contrasts that defined C1 and C2 was tested in the confirmatory phase.
Two separate methods were applied. LOCF data for PANSS-T at Day 28 were used in a one-way ANOVA of each SNP, testing each genotype class against the class of the other two genotypes combined. Results from the ANOVA dictated the parsimonious genetic model to be used for additional testing. Mixed Model Repeated Measures (MMRM) analysis was subsequently conducted using the parsimonious genetic model of each SNP in the MMRM model, as used for the analysis of the clinical trial results. In the MMRM analysis, only the best genetic model of each SNP, as determined in the ANOVA LOCF data analysis, was used.
Three analyses were performed. Analysis 1 was a two-phase approach in which DNA samples were separated into two groups. The first group consisted of 50% of the samples for a discovery phase in which only the top 30% and the bottom 30% of the change in PANSS-T (LOCF data) were used, and the second was a hold-out group consisting of the other 50% for a confirmatory phase. Only the 100 SNPs with the lowest P values in the discovery phase were subsequently tested.
Analysis 2 was an ANOVA of LOCF data for all iloperidone-treated patients in a single-phase approach.
Analysis 3 was an MMRM analysis of all patients using the most parsimonious genetic model of each SNP. […]

5-HT, receptor, sequence (P34969 whole entry): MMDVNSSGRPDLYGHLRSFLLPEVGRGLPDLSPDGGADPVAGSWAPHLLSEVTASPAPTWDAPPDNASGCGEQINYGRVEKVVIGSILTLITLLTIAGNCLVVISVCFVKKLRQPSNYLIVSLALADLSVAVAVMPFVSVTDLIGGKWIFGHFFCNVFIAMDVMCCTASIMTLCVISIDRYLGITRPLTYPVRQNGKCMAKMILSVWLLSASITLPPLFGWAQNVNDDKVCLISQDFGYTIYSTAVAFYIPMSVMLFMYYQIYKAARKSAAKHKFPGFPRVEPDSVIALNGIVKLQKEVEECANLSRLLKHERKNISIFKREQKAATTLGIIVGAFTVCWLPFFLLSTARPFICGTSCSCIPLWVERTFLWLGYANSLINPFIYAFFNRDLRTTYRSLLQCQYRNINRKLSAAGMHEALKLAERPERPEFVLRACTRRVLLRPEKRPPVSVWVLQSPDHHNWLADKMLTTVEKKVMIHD

As to `COc1cc(C(C)=O)ccc1OCCCN1CCC(c2noc3cc(F)ccc23)CC1` [iloperidone, 1-[4-[3-[4-(6-flouro-1,2-benzisoxazol-3-yl)-1-piperidinyl]propoxy]-3-methoxyphenyl] ethanone], at 5-HT, receptor, the “affinity for the 5-HT, receptor” value is given as “high affinity”. The “mean of change in PANSS-T” value is reported as −16.39 (±4.35) in assay [1] (rs875326 (TNR) genotype non-AG (homozygotes, highest response class)); −18.73 (±3.99) in assay [1] (rs4528226 (NUDT9P1) genotype GT (highest response class)); −15.95 (±4.23) in assay [1] (rs7837682 (GRFA2) genotype AA (highest response class)). Besides, the “Odds Ratio of Improvement ≧ 20% in PANSS-T” value was found to be 3.57 in assay [1] (rs875326 (TNR) non-AG vs AG); 2.43 in assay [1] (rs2513265 (GRIA4) non-TT vs TT); 3.00 in assay [1] (rs4528226 (NUDT9P1) GT vs non-GT); 2.95 in assay [1] (rs7837682 (GRFA2) AA vs non-AA); 3.42 in assay [1] (rs9643483 (XKR4) non-GG vs GG); 2.74 in assay [1] (rs11851892 (NPAS3) non-GG vs GG). Moreover, the “improvement in PANSS-T greater than the mean response of all iloperidone-treated patients” value in assay [1] (rs11851892 non-GG genotype vs all iloperidone-treated patients) was 68%.
